Results as given in patent US10421778B2, “Isoform-selective lysine deacetylase inhibitors” (WASHINGTON UNIVERSITY, priority 2015, dated 2019).
Read-outs that look alike come from different tables or passages of the source.

Experiments:
recombinant human KDAC1 = target: T1, recombinant human KDAC1 (Homo sapiens, UniProt Q13547); assay: KDAC inhibition assay, Caliper EZ Reader II; format: biochemical; details: for KDAC Inhibition Activity KDAC1 (% inhibition): % inhibition at 30 μM
T1 construct: purchased BPS Bioscience
T1 sequence (Q13547 whole entry): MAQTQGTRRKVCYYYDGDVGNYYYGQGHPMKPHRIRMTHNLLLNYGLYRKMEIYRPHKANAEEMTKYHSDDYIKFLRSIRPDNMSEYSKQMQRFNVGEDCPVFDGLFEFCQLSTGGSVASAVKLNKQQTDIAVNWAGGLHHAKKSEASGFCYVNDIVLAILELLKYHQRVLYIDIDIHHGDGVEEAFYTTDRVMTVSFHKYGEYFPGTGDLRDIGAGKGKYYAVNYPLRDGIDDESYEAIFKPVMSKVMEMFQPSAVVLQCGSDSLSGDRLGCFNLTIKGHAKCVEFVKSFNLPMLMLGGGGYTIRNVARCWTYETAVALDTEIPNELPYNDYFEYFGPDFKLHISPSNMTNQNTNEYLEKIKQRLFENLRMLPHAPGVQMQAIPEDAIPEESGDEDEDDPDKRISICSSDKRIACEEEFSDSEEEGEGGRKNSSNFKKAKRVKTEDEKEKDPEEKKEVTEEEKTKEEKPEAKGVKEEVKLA

recombinant human KDAC8 = target: T2, recombinant human KDAC8 (Homo sapiens, UniProt Q9BY41); assay: KDAC inhibition assay, Caliper EZ Reader II; format: biochemical; details: for KDAC Inhibition Activity KDAC8 (% inhibition): % inhibition at 30 μM
T2 construct: purchased BPS Bioscience
T2 sequence (Q9BY41 1-377): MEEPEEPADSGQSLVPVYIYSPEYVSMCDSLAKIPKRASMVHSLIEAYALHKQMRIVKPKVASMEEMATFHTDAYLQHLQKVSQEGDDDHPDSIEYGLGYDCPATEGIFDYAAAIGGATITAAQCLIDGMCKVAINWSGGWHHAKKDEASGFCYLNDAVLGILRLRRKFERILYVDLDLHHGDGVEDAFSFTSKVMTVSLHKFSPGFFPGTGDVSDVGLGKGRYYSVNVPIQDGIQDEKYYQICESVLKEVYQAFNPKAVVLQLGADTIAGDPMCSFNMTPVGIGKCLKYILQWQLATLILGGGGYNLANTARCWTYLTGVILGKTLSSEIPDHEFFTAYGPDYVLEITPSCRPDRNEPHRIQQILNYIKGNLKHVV

[1] = tested on: JLAT 10.6 cells, which have HIV-1-GFP stably integrated; assay: Reactivation of HIV from latency in JLAT 10.6 cells (GFP, FACS); format: cell-based; details: J-Lat 10.6, 24 h, read-out: EC50 in reactivating HIV from latency
Method: JLAT 10.6 cells, which have HIV-1-GFP stably integrated, were incubated with the indicated compounds for 24 hours. […] Upon stimulation with an appropriate agent, they can produce HIV as measured by GFP recognition with fluorescent-activated cell sorting (FACS). Cells were fixed and FACS performed for GFP as a surrogate for HIV production using TNF alpha as positive control. Largazoles are SDL256, JMF 1080, and SDL148. Relative activation is normalized to TNF alpha.

[2] = tested on: Resting CD4+ T cells isolated from a patient fully suppressed on antiretroviral therapy; assay: Reactivation of virus in resting CD4+ T cells of a suppressed patient (HIV-1 p24 ELISA); format: cell-based; details: 1 μM, 48 hours, then co-culture with MOLT4/CCR5 cells 7 days; preliminary data
Excerpt: Cells were washed and co-cultured with MOLT4/CCR5 cells for 7 days. R Cellular supernatants were collected for HIV-1 p24 ELISA. N.R—non reactive.

KDAC1, KDAC2, and KDAC3 = details: background statement; cited from earlier work
recombinant human KDAC3 = target: T3, recombinant human KDAC3 (Homo sapiens, UniProt O15379); assay: KDAC inhibition assay, Caliper EZ Reader II; format: biochemical; details: for KDAC Inhibition Activity KDAC3 (% inhibition): % inhibition at 30 μM
T3 construct: purchased BPS Bioscience
T3 sequence (O15379 whole entry): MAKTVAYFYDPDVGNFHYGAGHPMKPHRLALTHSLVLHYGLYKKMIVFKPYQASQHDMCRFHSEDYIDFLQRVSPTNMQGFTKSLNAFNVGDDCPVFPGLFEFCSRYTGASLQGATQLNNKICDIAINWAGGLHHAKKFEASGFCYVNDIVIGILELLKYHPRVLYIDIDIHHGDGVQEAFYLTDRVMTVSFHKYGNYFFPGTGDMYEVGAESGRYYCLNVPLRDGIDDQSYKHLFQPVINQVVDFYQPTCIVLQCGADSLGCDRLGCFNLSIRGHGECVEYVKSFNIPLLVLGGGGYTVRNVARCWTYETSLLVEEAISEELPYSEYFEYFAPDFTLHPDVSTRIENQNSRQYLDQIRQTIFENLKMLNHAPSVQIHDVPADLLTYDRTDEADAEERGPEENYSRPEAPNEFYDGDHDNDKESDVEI
T3 sequence (Q9Y618 395-489 partner limits assumed): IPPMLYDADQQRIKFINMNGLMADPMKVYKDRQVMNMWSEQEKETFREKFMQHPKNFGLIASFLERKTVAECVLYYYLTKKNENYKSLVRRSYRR

recombinant human KDAC6 = target: T4, recombinant human KDAC6 (Homo sapiens, UniProt Q9UBN7); assay: KDAC inhibition assay, Caliper EZ Reader II; format: biochemical; details: for KDAC Inhibition Activity KDAC6 (% inhibition): % inhibition at 30 μM
T4 construct: purchased BPS Bioscience
T4 sequence (Q9UBN7 1-1215): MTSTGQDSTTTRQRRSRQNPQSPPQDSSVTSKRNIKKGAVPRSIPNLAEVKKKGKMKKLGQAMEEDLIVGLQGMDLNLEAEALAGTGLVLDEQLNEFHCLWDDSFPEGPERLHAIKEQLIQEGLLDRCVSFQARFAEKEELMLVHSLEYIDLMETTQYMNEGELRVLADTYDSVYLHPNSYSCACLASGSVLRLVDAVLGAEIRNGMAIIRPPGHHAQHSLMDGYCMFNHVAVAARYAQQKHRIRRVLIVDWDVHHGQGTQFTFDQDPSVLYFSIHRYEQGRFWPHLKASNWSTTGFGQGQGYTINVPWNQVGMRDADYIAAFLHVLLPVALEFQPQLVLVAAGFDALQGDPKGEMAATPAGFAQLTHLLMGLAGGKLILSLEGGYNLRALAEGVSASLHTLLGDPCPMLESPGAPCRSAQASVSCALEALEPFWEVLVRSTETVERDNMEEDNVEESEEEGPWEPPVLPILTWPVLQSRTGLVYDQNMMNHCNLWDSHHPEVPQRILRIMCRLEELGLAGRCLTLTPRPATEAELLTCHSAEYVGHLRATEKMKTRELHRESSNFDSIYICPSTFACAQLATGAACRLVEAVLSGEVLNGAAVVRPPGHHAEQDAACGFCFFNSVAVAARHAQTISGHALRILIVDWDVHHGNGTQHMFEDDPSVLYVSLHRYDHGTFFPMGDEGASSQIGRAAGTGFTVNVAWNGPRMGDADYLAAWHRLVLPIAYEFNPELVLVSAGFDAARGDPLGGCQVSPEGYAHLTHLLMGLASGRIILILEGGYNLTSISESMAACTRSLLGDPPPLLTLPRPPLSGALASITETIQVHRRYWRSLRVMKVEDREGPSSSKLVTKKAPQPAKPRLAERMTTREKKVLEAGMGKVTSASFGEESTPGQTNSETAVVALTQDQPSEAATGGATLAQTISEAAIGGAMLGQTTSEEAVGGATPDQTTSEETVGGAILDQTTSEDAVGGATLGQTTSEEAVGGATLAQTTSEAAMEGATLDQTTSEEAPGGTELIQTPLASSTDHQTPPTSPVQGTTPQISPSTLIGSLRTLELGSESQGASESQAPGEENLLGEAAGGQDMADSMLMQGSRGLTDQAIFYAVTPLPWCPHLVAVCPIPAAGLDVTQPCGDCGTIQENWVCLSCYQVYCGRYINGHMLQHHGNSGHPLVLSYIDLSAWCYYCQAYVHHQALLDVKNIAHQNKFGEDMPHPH

KDAC Inhibition Activity KDAC1 (% inhibition) (recombinant human KDAC1) | KDAC Inhibition Activity KDAC3 (% inhibition) (recombinant human KDAC3) | KDAC Inhibition Activity KDAC6 (% inhibition) (recombinant human KDAC6) | KDAC Inhibition Activity KDAC8 (% inhibition) (recombinant human KDAC8) | Molecule | inhibition at 30 µM (recombinant human KDAC8) | EC50 [1] | other results
– | – | – | – | CCCCCCCC(=O)SCC/C=C/[C@@H]1CC(=O)NCc2nc(cs2)C2=N[C@@](C)(CS2)C(=O)N[C@@H](C(C)C)C(=O)O1 [Largazole, largazole] | 28% | 150 nM | IC50 (recombinant human KDAC1): 2330 nM; reactivation of virus from latency, HIV-1 p24 ELISA in culture supernatants [2]: able to reactivate virus from latency; potency against KDAC1, KDAC2, and KDAC3 (KDAC1, KDAC2, and KDAC3): picomolar range
– | – | – | – | CC(=O)SCC/C=C/[C@@H]1CC(=O)NCc2cc(ccn2)C2=N[C@@](C)(CS2)C(=O)N[C@@H](C(C)C)C(=O)O1 [SD-L-256, reference compound] | 39% | 1600 nM | IC50 (recombinant human KDAC1; 10-point dose curve from 30 μM): 3480 nM; IC50 (recombinant human KDAC3; 10-point dose curve from 30 μM, read-out: KDAC Inhibition Activity (IC50) KDAC3): 470 nM; IC50 (recombinant human KDAC3; read-out: KDAC Inhibition Activity (pIC50) KDAC3 (converted)): 479 nM; IC50 (recombinant human KDAC6; 10-point dose curve from 30 μM): 1610 nM; IC50 (recombinant human KDAC8; 10-point dose curve from 30 μM): > 30000 nM
15% | 5% | 10% | 10% | Cyclo-Asp(Pro-^DPro-Val)-NHCH2CH2S—SCH2CH2NH2 [Compound 26a] | – | – | –
3.5% | 5% | 3% | 38% | Cyclo-^DAsp(^DPro-Pro-Val)-NHCH2CH2CH2S(═O)CH3 [Compound 8b] | – | – | –

Molecule | KDAC Inhibition Activity KDAC1 (% inhibition) (recombinant human KDAC1) | KDAC Inhibition Activity KDAC3 (% inhibition) (recombinant human KDAC3) | KDAC Inhibition Activity KDAC6 (% inhibition) (recombinant human KDAC6) | KDAC Inhibition Activity KDAC8 (% inhibition) (recombinant human KDAC8) | inhibition at 30 µM (recombinant human KDAC8) | EC50 [1] | other results
Cyclo-Asp(Pro-^DPro-Val)-NHCH2CH2CH2S(═O)CH3 [Compound 20a] | Not active | Not active | Not active | 19% | – | – | –
